Data reported in patent US7067517B2 (priority 2001, dated 2006).
Structures can show the parent of a compound that is named as a salt.

How the values were obtained:
[1] = target: T1, Hormone-sensitive lipase (HSL) (Homo sapiens, UniProt Q05469); assay: Test 2848.2: high-volume screening assay, para-nitrophenyl butyrate (p-NPB) substrate; format: biochemical; conditions: UV-abs 405 nm, 20 min room temp, % Eff (% Inhibition)
T1 sequence (Q05469 1-1076): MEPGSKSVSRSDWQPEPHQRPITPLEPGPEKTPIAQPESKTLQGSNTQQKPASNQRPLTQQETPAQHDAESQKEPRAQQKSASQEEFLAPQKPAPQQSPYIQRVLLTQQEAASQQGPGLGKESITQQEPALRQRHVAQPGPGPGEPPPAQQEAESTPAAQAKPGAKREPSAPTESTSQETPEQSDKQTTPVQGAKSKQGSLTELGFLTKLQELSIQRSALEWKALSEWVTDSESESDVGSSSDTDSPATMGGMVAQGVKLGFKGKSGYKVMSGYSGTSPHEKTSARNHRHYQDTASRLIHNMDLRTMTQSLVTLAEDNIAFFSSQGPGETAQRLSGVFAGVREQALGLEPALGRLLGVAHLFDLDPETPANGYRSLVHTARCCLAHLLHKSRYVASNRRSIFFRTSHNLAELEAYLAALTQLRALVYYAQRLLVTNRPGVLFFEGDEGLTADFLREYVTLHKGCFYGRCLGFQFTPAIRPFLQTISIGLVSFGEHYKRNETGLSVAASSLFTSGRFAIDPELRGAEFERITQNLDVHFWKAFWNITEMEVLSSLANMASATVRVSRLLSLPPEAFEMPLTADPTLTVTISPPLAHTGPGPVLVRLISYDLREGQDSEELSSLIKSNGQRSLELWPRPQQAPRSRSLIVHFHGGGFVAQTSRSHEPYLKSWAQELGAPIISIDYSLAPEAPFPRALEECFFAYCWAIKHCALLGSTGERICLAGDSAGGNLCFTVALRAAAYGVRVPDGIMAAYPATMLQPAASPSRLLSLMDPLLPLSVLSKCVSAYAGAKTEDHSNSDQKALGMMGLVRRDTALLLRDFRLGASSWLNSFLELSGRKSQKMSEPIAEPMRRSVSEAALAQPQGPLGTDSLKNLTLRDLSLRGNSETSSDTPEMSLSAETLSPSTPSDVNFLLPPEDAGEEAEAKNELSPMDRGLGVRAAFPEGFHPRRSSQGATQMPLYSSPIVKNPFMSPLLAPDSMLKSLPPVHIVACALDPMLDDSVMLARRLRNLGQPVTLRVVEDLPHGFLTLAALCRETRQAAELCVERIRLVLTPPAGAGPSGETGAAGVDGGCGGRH
Text: Materials. The Hormone-sensitive lipase was provided by Dr. Cecilia Holm, from Lund University Sweden or produced and purified by Novo Nordisk (NN) using the reagents and protocols used by Dr. Holm. The substrates used are: ^3H-labeled triolein (TO) from Amersham, Buckinghamshire, U.K. cat No. TRA191; 5–20 Ci/mmol dissolved in toluene, triolein (Sigma, Cat. No. T-1740), fluorochrome-labeled triacylglyceride (cis-octadec-9-enoic acid 2-[12-(7-nitrobenzo[1,2,5]oxadiazol-4-ylamino)dodecanoyloxy]-1-cis-octadec-9-enoyloxymethyl-ethyl ester) prepared by Novo Nordisk (NN) by conventional methods, and 1,3-(di[^3H]-stearin), 2-(PEG-Boitin)glycerol prepared in collaboration with Amersham Pharmacia Biotech, UK and described in WO 01/073442. Phosphatidyl choline (PC) and phosphatidyl inositol (PI) are from Sigma (St Luis Mo. cat. Nos. P-3556 and P-5954 respectively). All other reagents are of commercial grade and obtained from various commercial sources.
2848.2: This high-volume screening assay uses para-nitrophenyl butyrate (p-NPB) as substrate for HSL. HSL cleaves p-NPB and the reaction is monitored as an increase in the concentration of para-nitrophenol (p-NP). p-NP can be monitored as an increase in UV-absorbance at 405 nm. The reaction is carried out at room-temp. for 20 min. The action is not stopped, but instead UV-abs is measured at a fixed time (20 min.) Due to autohydrolysis of the substrate the reaction is read at t=0 min. too and t=20 min. and the increase in Abs is calculated as the difference between the two readings. When a compound that inhibits HSL is present, it results in a relative decrease in UV-absorbance. % Eff(% Inhibition)=(S−S0Eff)/(SmaxEff−S0Eff)×100 Where S=signal in UV-abs., S0Eff=assaybuffer alone, SmaxEff=Assaybuffer with the lipase inhibitor.

Structure (SMILES) | melting point | Test 2848.2 HSL % Inhibition All [1]
COc1ccc2c(OC(=O)N(C)C)cc(=O)n(C)c2c1 [Example 132, Dimethyl-carbamic acid 7-methoxy-1-methyl-2-oxo-1,2-dihydro-quinolin-4-yl ester] | – | 19.6%
CN(C)C(=O)On1nnc2ccccc2c1=O [Example 116, Dimethylcarbamic acid 4-oxo-1,2,3-benzotriazin-3-yl ester] | – | 23.5%
Cc1ccc(NC(C=O)=NOC(=O)NC2CCCCC2)cc1 [Example 104, 2-Oxo-N-p-tolylacetamide O-(cyclohexylcarbamoyl)-oxime] | – | 19.8%
Cc1cc(C)nc(Sc2ccc(OC(=O)N3CCN(Cc4cccc(F)c4)CC3)cc2)n1 | 117 to 118 °C | –
O=C(Oc1ccc(Oc2ccc(C(F)(F)F)cn2)cc1)N1CCN(c2ccccc2)CC1 | 117 °C | –
O=C(Nc1ccc(Cl)c(Cl)c1)n1c(-c2ccccc2)nc2ccccc21 [Example 129, N-(3,4-Dichlorophenyl)-2-phenyl-benzimidazole-1-carboxamide] | – | 27%
CC(C)CCC(C=Cc1ccc(Br)cc1)=NOC(=O)NC(C)C [Example 108, 1-(4-Bromophenyl)-6-methyl-hept-1-en-3-one O-isopropylcarbamoyl-oxime] | – | 37.2%
O=C(Oc1ccc(Oc2ccc(C(F)(F)F)cn2)cc1)N1CCN(c2ccc(F)cc2)CC1 (as salt: hydrochloride) | 131 to 132 °C | –
O=C(NC1CCCCC1)ON=C1c2ccccc2CCc2ccccc21 [Example 105, 10,11-Dihydro-dibenzo[a,d]cyclohepten-5-one O-cyclohexylcarbamoyl-oxime] | – | 26.8%
O=C(Oc1ccc(Oc2ccc(C(F)(F)F)cn2)cc1)N1CCN(CCO)CC1 (as salt: hydrochloride) | 255 °C | –
CCCNC(=O)ON=C(C=Cc1ccc(Br)cc1)CCC(C)C [Example 111, 1-(4-Bromophenyl)-6-methyl-hept-1-en-3-one O-propylcarbamoyl-oxime] | – | 36.2%
O=C(Oc1ccc(Oc2ccc(C(F)(F)F)cn2)cc1)N1CCN(C2CCCC2)CC1 (as salt: hydrochloride) | 294 to 295 °C | –
O=C(Oc1ccc(Oc2ccc(C(F)(F)F)cn2)cc1)N1CCN(c2cnccn2)CC1 | 160 to 161 °C | –
O=C(NCCc1ccccc1)n1nc(-c2ccc(Oc3ccccc3)cc2)cc1N1CCOCC1 [Example 127, 5-Morpholin-4-yl-3-(4-phenoxyphenyl)-pyrazole-1-carboxylic acid phenethylamide] | – | 58.7%
O=C(CN1CCN(C(=O)Oc2ccc(Oc3ccc(C(F)(F)F)cn3)cc2)CC1)N1CCCC1 (as salt: hydrochloride) | 224 °C | –
CNC(=O)ON=Cc1c(Br)cnn1Cc1ccc(Cl)cc1 [Example 110, 4-Bromo-2-(4-chlorobenzyl)-2H-pyrazole-3-carbaldehyde O-methylcarbamoyl-oxime] | – | 18.8%
O=C(Nc1ccccc1)n1ncc(S(=O)(=O)c2ccc(Cl)cc2)c1-c1ccc(Cl)cc1 [Example 128, N-Phenyl-4-(4-chlorobenzenesulfonyl)-5-(4-chlorophenyl)-pyrazole-1-carboxamide] | – | 33.8%
CN(C(=O)On1cccn1)c1ccccc1 | 63 to 67 °C | –
O=C(Oc1ccc(Oc2ccc(C(F)(F)F)cn2)cc1)N1CCN(c2ccc3c(c2)OCO3)CC1 | 146 to 147 °C | –
CCCCN1CCN(C(=O)Oc2ccc(Oc3ccc(C(F)(F)F)cn3)cc2)CC1 (as salt: hydrochloride) | 221 to 222 °C | –
O=C(Oc1ccc(Oc2ccc(C(F)(F)F)cn2)cc1)N1CCN(c2ccc(Cl)c(Cl)c2)CC1 | 115 to 116 °C | –
COc1ccc(N2CCN(C(=O)Oc3ccc(Oc4ccc(C(F)(F)F)cn4)cc3)CC2)c(OC)c1 | 98 to 99 °C | –
O=C(Oc1ccc(Oc2ccc(C(F)(F)F)cn2)cc1)N1CCN(c2ncccn2)CC1 | 120 to 121 °C | –
O=C(Oc1ccc(Oc2ccc(C(F)(F)F)cn2)cc1)N1CCN(CCc2cccs2)CC1 (as salt: hydrochloride) | 236 to 237 °C | –
O=C(Oc1ccc(Oc2ccc(C(F)(F)F)cn2)cc1)N1CCN(CCc2ccncc2)CC1 (as salt: hydrochloride) | 268 to 271 °C (dec.) | –
O=C(Oc1ccc(Oc2ccc(C(F)(F)F)cc2)cc1)N1CCN(C2CCCCC2)CC1 (as salt: hydrochloride) | 290 to 291 °C | –
O=C(Oc1ccc(Oc2ccc(C(F)(F)F)cn2)cc1)N1CCN(c2ccccn2)CC1 (as salt: hydrochloride) | 247 to 248 °C | –
O=C(Oc1ccc(Oc2ccc(C(F)(F)F)cn2)cc1)N1CCN(c2ncccc2C(F)(F)F)CC1 | 131 to 132 °C | –
Cc1c(Cc2ccc(F)cc2)c(=O)oc2cc(OC(=O)N(C)c3ccccc3)ccc12 | 185 to 186 °C | –
O=C(Oc1ccc(Oc2ccc(C(F)(F)F)cn2)cc1)N1CC2CC1CN2Cc1ccccc1 (centres unmarked) | 114 to 115 °C | –

Continued, in another order:

melting point | Structure (SMILES) | Test 2848.2 HSL % Inhibition All [1]
240 to 243 °C | O=C(Oc1ccc(Oc2ccc(C(F)(F)F)cn2)cc1)N1CCN(Cc2ccc(F)cc2)CC1 (as salt: hydrochloride) | –
204 to 205 °C | O=C(Oc1ccc(Oc2ccc(C(F)(F)F)cn2)cc1)N1CCN(Cc2c(F)cccc2Cl)CC1 (as salt: hydrochloride) | –
239 to 240 °C | O=C(Oc1ccc(Oc2ccc(C(F)(F)F)cn2)cc1)N1CCN(Cc2ccc3c(c2)OCO3)CC1 (as salt: hydrochloride) | –
138 to 139 °C | O=C(Oc1ccc(Oc2ccc(C(F)(F)F)cn2)cc1)N1CCN(Cc2cccc(F)c2)CC1 (as salt: hydrochloride) | –
237 to 238 °C | COc1ccc(CN2CCN(C(=O)Oc3ccc(Oc4ccc(C(F)(F)F)cn4)cc3)CC2)cc1 (as salt: hydrochloride) | –
111 to 113 °C | O=C(Oc1ccc(Oc2ncc(C(F)(F)F)cc2Cl)cc1)N1CCN(Cc2ccccc2)CC1 (as salt: hydrochloride) | –
229 to 231 °C | O=C(Oc1ccc(Oc2ccc(C(F)(F)F)cn2)cc1)N1CCN(Cc2ccccc2)CC1 (as salt: hydrochloride) | –
189 to 190 °C | O=C(Oc1ccc(Oc2ccc(C(F)(F)F)cn2)cc1)N1CCN(Cc2ccccn2)CC1 (as salt: hydrochloride) | –
143 °C | O=C(Oc1ccc(Oc2ccc(C(F)(F)F)cn2)cc1)N1CCCN(Cc2ccc(-c3ccccc3)cc2)CC1 | –
168 to 171 °C | COc1cccc(N2CCN(C(=O)Oc3ccc(Oc4ccc(C(F)(F)F)cc4)cc3)CC2)c1 (as salt: hydrochloride) | –
176 to 178 °C | O=C(Oc1ccc(Oc2ccc(C(F)(F)F)cc2)cc1)N1CCN(CCOCCO)CC1 (as salt: hydrochloride) | –
214 to 215 °C | COc1cccc(CN2CCN(C(=O)Oc3ccc(Oc4ccc(C(F)(F)F)cn4)cc3)CC2)c1 (as salt: hydrochloride) | –
274 to 275 °C | CC(C)(C)c1ccc(CN2CCN(C(=O)Oc3ccc(Oc4ccc(C(F)(F)F)cn4)cc3)CC2)cc1 (as salt: hydrochloride) | –
250 to 252 °C | Cc1ccc(CN2CCN(C(=O)Oc3ccc(Oc4ccc(C(F)(F)F)cc4)cc3)CC2)cc1 (as salt: hydrochloride) | –
